In US12215106B2, “Pharmaceutical compounds and therapeutic methods” (RUTGERS, THE STATE UNIVERSITY OF NEW JERSEY, priority 2018, dated 2025):
Where a name gives a salt, the structure may show the parent alone.

Experiments:
[1] = tested on: PD-L1; experiment: Western blotting of PD-L1 levels in GBM spheres; assay type: cell-based, human
[2] = tested on: STAT1; experiment: Western blotting of STAT1 protein levels in GBM spheres; assay type: cell-based, human; details: 72 hours
Experimental: GBM cells were treated with DMSO or different concentrations of the test compounds for 72 hours. Cells were lysed in Cell Lysis Buffer (Cell Signaling, #9803) supplemented with Protease Inhibitor Cocktail (Sigma, #P8340), sonicated briefly while on ice and spun down for 30 minutes at 4° C., after which the supernatant was collected. For each sample, 2 uL of lysate was mixed well into 198 uL de-ionized water. Next, 10 uL of this diluted sample was added to a well in a 96 well plate in quadruplets and mixed with Protein Assay Dye Reagent Concentrate (Bio-Rad, #500-0006) (which was diluted 1:5 with water). BSA standards of 25 ng, 50 ng, 100 ng, 200 ng and 250 ng were also used to the plate and mixed with the reagent. The plate was read in a plate reader at 600 nm and samples were calibrated to the standards to determine the concentration of protein. Using the NuPAGE system (Invitrogen), 25 ug of protein was mixed with NuPAGE LDS 4× Sample Buffer (#NP0007), NuPAGE 10× Reducing Agent (#NP0004) and water, mixed well and heated at 96° C. for 15 minutes to denature the protein. The samples were then loaded into 4-12% Bis-Tris gels (Novex (Invitrogen), #0323) with a protein ladder (Novex (Invitrogen) Sharp Pre-stained protein ladder, #57318) and run at 100-120V for about 2 hours with NuPAGE 20×SDS MES Running Buffer (#NP0002) diluted with water. Next, the gel was taken out and loaded into a NuPAGE transfer cassette with a polyvinylidene membrane with NuPAGE 20× Transfer Buffer (#NP0006-1) diluted with water and methanol. Proteins were transferred for 1 hour at 30V at room temperature. Blocking was performed using the Millipore SNAP i.d. Protein Detection system in 0.25% non-fat dry milk in 0.1% Tween in PBS (PBST). […] Protein signals were detected using ECL Western Blotting Substrate (Pierce, #32106) and filmed. […]

[3] = Toxicity in preclinical mouse models; assay type: in vivo
[4] = tested on: Caco-2 cells; experiment: Bi-directional Caco-2 transport assay; assay type: in vitro ADME; details: for Papp (A-B) / Papp (B-A) / Efflux Ratio (B-A/A-B): human, Caco-2, 90 min, 5 μM; for Papp (A-B) / Papp (B-A): pH 7.4; for P-gp substrate: Caco-2
Experimental: (§1) The objective of the study is to evaluate test compounds as substrates for efflux transporter using Caco-2 cell line. To assess the functionality of P-glycoprotein (P-gp), loperamide was run as a positive control (Apical and basolateral HBSS pH 7.4).
(§2) 5 mM DMSO stock of test compounds and loperamide was diluted 1000-folds in HBSS having 0.1% DMSO to prepare concentrations of 5 μM.
(§3) Caco-2 cells were grown in DMEM (20% FBS) until 85-90% confluence. After attaining required confluence, cells were trypsinized and seeded into 24 well millcell plates at a density of 0.6×10^5 cells/insert. The plates were maintained for 21 days at 37° C. in CO2 incubator with change of medium every alternative day. Monolayer integrity was monitored by measuring Trans-epithelial electrical resistance (TEER) from day 15.
(§4) Caco-2 cell monolayer was washed twice with HBSS and incubated for 40 min in CO2 incubator. TEER values were measured and wells showing TEER values above 230 ohms·cm^2 were taken for experiments. The study was performed in loperamide and test compounds by adding 400 μL of loperamide prepared in HBSS in apical (A-B transport) followed by addition of 800 μL of HBSS on basal side and for B-A transport 800 μL of loperamide prepared in HBSS was dosed in basal followed by addition of 400 μL HBSS on apical side. At selected time points (0, 15, 30, 60 and 90 mins) an aliquot of 50 μL was collected from the receiver compartment for determination of test compound concentrations. The volume withdrawn was replaced immediately with HBSS buffer. TEER was measured at the end to the experiment to confirm any damage of monolayer while performing experiment. Those wells with TEER not meeting the criteria were excluded from the study.
(§5) A 50 μL of test compound samples collected at respective time points and submitted for LC-MS/MS analysis.
(§6) The apparent permeability (Papp) (A−B & B−A) of test compounds and positive control was calculated using the following formula: Papp=dQ/dt/A·Co where, dQ/dt=linear slope of test compound concentration in receptor chamber with time (0, 15, 30, 60 and 90 min) after correcting for dilution; A=area of the filter (0.7 cm^2); and Co=initial concentration of compound in the donor compartment.
(§7) Efflux ratio (RE) was calculated using the following equation: RE=PB/A/PA/B where PB/A and PA/B represent the apparent permeability of test compound from the basal to apical and apical to basal side of cell monolayer.
(§8) Recovery represents: (amount of the compound recovered from donor at end of incubation+cumulative amount of compound in acceptor at end of incubation+amount of the compound in cell lysate or assay well)/amount of compound in donor solution at time zero*100
(§9) Compounds are classified based on Papp values as follows:
(§10) A compound having efflux ratio of >2 is considered as having potential as a P-gp substrate.

[5] = Bi-directional Caco-2 transport assay; assay type: in vitro ADME; details: human; for Papp at 90 min, 5 μM: Caco-2; for Papp A→B at 90 min, 5 μM / Papp B→A at 90 min, 5 μM: Caco-2, pH 7.4
Experimental: as §1, §2, §3, §4, §5, §6, §7, §8, §9, §10

[6] = tested on: P-gp; experiment: Bi-directional Caco-2 transport assay; assay type: in vitro ADME; details: human, Caco-2, Efflux Ratio (B-A/A-B)
Experimental: as §1, §2, §3, §4, §5, §6, §7, §8, §9, §10

With `COc1c(F)cc(Nc2nc(-c3c(C)nc4ccccn34)cs2)cc1F` [Compound 14, hydrochloride] the “PD-L1 levels, time-course” value ([1]; 7-10 nM, time-course of 120 hours) was “modulate of the levels of PD-L1”, the STAT1 protein levels [2] was “lowered STAT1” and the toxicity in vivo [3] was “appear not to have toxicity in vivo”. The “Papp (A-B)” value [4] was 0.0 ± 0.0 10^−6 cm/sec and the “Papp (B-A)” value [4] was 0.0 ± 0.0 10^−6 cm/sec.

With `[2H]C([2H])([2H])Oc1ccc(Nc2nc(-c3c(C)nc4ccccn34)cs2)cc1` [Compound 15, N-(4-(methoxy-d3)phenyl)-4-(2-methylimidazo[1,2-c]pyridin-3-yl)thiazol-2-amine hydrochloride] the STAT1 protein levels [2] was “lowered STAT1”, the “Papp (A-B)” value [4] was 0.0 ± 0.0 10^−6 cm/sec and the “Papp (B-A)” value [4] was 0.0 ± 0.0 10^−6 cm/sec.

In the case of `Cc1nc2ccccn2c1-c1csc(Nc2ccc3c(c2)OC(F)(F)O3)n1` [Compound 16, N-(2,2-difluorobenzo[d][1,3]dioxol-5-yl)-4-(2-methylimidazo[1,2-a]pyridin-3-yl)thiazol-2-amine hydrochloride], the Papp at 90 min, 5 μM [5] is reported as 3 to 15 ×10⁻⁶ cm/s, the Papp A→B at 90 min, 5 μM [5] is reported as 14 ± 3.3 ×10⁻⁶ cm/s and the Papp B→A at 90 min, 5 μM [5] is reported as 12.1 ± 0.1 ×10⁻⁶ cm/s. The P-gp substrate [4] was “not P-gp substrate” and the “Efflux Ratio (B-A/A-B)” value [4] was 0.9.

In the case of `[2H]C1([2H])Oc2ccc(Nc3nc(-c4c(C)nc5ccccn45)cs3)cc2O1` [Compound 17, N-(benzo[d][1,3]dioxol-5-yl-2,2-d2)-4-(2-methylimidazo[1,2-c]pyridin-3-yl)thiazol-2-amine hydrochloride], the PDL1 levels ([1]; GBM spheres, Western blotting) is reported as “increased PDL1”, the STAT1 protein levels [2] is reported as “lowered STAT1” and the Papp at 90 min, 5 μM [5] is reported as 3 to 15 ×10⁻⁶ cm/s. The Papp A→B at 90 min, 5 μM [5] was 4.9 ± 0.8 ×10⁻⁶ cm/s, the Papp B→A at 90 min, 5 μM [5] was 6.4 ± 0.6 ×10⁻⁶ cm/s and the efflux ratio at 90 min, 5 μM [6] was under 2. The P-gp substrate [4] was “not P-gp substrate” and the “Efflux Ratio (B-A/A-B)” value [4] was 1.3.
